Measured values as given in PMC10011588, “Conformational transitions and allosteric modulation in a heteromeric glycine receptor” (Nature Communications, 2023).

How the values were obtained:
[1] = target: T1, α1βB glycine receptor (ZF-α1GlyR subunit) (Danio rerio, UniProt O93430+Q6DC22); design: gene glra1
T1 sequence (O93430 25-444): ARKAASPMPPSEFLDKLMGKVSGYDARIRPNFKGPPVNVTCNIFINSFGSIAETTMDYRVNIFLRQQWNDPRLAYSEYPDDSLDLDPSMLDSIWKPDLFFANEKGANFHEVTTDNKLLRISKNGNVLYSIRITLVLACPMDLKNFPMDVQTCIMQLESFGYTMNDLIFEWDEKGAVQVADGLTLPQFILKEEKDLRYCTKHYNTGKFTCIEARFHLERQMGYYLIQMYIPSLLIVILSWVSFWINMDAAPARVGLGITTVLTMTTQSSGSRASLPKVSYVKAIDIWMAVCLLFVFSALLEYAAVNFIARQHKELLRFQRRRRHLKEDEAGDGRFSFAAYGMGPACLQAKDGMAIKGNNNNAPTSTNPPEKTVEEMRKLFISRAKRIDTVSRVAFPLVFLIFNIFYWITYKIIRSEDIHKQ
T1 sequence (Q6DC22 23-494): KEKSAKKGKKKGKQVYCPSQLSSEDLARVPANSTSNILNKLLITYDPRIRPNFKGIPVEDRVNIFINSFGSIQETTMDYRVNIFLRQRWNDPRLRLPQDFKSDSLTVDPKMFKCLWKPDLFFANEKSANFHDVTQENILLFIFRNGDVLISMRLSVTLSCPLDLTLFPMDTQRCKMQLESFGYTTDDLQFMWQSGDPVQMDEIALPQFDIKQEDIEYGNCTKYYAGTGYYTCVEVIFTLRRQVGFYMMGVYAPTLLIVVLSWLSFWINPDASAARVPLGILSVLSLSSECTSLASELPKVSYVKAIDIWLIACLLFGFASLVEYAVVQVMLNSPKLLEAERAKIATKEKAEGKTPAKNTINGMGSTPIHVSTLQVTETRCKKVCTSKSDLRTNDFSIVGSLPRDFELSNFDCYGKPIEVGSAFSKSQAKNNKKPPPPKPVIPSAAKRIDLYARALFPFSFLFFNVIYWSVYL

[2] = target: T1, α1βB glycine receptor (ZF-α1GlyR subunit); test: cryo-EM structure, […] Å ([…] glycine); EC50 from whole-cell currents in HEK […] T cells (homomeric α[…]); format: cell-based; design: gene glra1; full-length α1GlyR (NP_571477.1) with C-terminal thrombin site and 8xHis tag, 4α:1β heteropentamer; with βBGlyR (glrbb, NP_001003587.1); rat gephyrin E domain co-purified (not resolved)
Description: The carboxyl oxygens form hydrogen bonds with αS153 (βS173) on Loop E

[3] = target: T2, zebrafish glycine receptor βB subunit (ZF-βBGlyR), full length (zebrafish, UniProt Q6DC22 1-494, N-glycans at N54 and N241); test: cryo-EM structure; αβGlyR-Geph-E sample co-expressed in Sf9 and co-purified in DDM, vitrified on graphene-oxide grids with 100 µM strychnine, 1 mM glycine, or 1 mM glycine and 20 µM ivermectin; no fiduciary marker; conditions: partners not purified
T2 construct: glycine receptor βB subunit, zebrafish, NCBI NP_001003587.1, codon-optimised full-length gene; One copy stands in the αβGlyR heteropentamer (4α:1β); also called βGlyR; GlyRβB; source: Sf9 (ExpiSf9) cells, baculovirus (pFastBacDual, polyhedrin promoter), co-expressed with α1GlyR and Geph-E
T2 sequence (looked up): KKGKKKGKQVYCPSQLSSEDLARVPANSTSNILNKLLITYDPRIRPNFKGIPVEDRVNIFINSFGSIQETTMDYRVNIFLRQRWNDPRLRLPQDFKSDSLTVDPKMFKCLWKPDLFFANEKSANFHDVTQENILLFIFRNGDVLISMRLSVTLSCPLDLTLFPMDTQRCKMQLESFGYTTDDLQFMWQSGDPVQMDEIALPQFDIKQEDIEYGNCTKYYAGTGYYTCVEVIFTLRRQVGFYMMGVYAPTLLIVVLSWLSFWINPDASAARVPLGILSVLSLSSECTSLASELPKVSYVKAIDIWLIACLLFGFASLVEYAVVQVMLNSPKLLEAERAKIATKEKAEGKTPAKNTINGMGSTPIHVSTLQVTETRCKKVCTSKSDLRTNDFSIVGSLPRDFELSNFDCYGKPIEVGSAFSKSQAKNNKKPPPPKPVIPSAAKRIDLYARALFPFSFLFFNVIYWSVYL

For `O=C1C[C@@H]2OCC=C3CN4CC[C@]56c7ccccc7N1[C@H]5[C@H]2[C@H]3C[C@H]46` [strychnine], the “cryo-EM structure, 2.97 Å (100 μM strychnine)” value [1] was “Strychnine density is well-defined in αβGlyR-Stry and is essentially in the same orientation across all five subunits”.

`NCC(=O)O` [glycine] gave an EC50 [2] of 63 ± 13 µM.

B1: zebrafish glycine receptor α1 subunit (ZF-α1GlyR), full length (receptor, UniProt O93430 25-444, looked up)
chain: ARKAASPMPPSEFLDKLMGKVSGYDARIRPNFKGPPVNVTCNIFINSFGSIAETTMDYRVNIFLRQQWNDPRLAYSEYPDDSLDLDPSMLDSIWKPDLFFANEKGANFHEVTTDNKLLRISKNGNVLYSIRITLVLACPMDLKNFPMDVQTCIMQLESFGYTMNDLIFEWDEKGAVQVADGLTLPQFILKEEKDLRYCTKHYNTGKFTCIEARFHLERQMGYYLIQMYIPSLLIVILSWVSFWINMDAAPARVGLGITTVLTMTTQSSGSRASLPKVSYVKAIDIWMAVCLLFVFSALLEYAAVNFIARQHKELLRFQRRRRHLKEDEAGDGRFSFAAYGMGPACLQAKDGMAIKGNNNNAPTSTNPPEKTVEEMRKLFISRAKRIDTVSRVAFPLVFLIFNIFYWITYKIIRSEDIHKQ
modifications: N-glycan at N62
notes: glycine receptor α1 subunit, zebrafish, NCBI NP_571477.1, codon-optimised full-length gene; Four copies stand in the αβGlyR heteropentamer (4α:1β); The full-length gene was expressed; also called αGlyR; GlyRα1; source: Sf9 (ExpiSf9) cells, baculovirus (pFastBacDual, p10 promoter), co-expressed with βBGlyR and Geph-E; not shown: 8x His (after a thrombin site LVPRGS), C-terminal, kept
With B1 the “stoichiometry N” value [3] was 4 α per β.
